Test system: level of expression of MMP-3 in blood
Assay: Level of expression of MMP-3 in blood stimulated with PMA, measured using flow cytometer (FACS)
Assay type: cell-based, human
Design: unit not given here
Settings: for level of expression of MMP-3, After: 500 ul whole blood, 90 ng PMA, 3 h + 6 h Brefeldin A; for level of expression of MMP-3, Total (After minus Before): PMA stimulation
Experimental: In order to implement the method of stimulating blood and to check the clinical value of the kit of the present invention, the level of expression of MMP-3 was checked using a flow cytometer. 3 ml of blood was collected to sodium citrate tube (BD vacutainer), and CBC (complete blood count) was measured immediately upon pumping-up the blood. Then, the blood was stimulated with the chemical substance of the present invention. 500 ul of whole blood was put into the 24 wells plate for cell culture, and 90 ng of PMA was added into the plate. Then, the cell culture plate was put into a 5% CO2 incubator, and was kept at 37 for 3 hours. After 3 hours, 200 ug/ml of Brefeldin A(SIGMA) was added into the plate, and placed at 37 for 6 hours.
After lapse of the total 9 hours, 50 ul of blood was extracted, and put into 2 tubes respectively. Then, 10 ul of CD45-PC5 10 and 10 ul of CD14-FITC were respectively added to the 2 tubes, mixed with each other, and placed in a darkroom at room temperature for 15 min. Then, 100 ul of RBC lysis buffer (Bechman coulter) was added to the 2 tubes respectively, and mixed with each other using a vortex. The mixtures were placed in a darkroom at room temperature for 15 min. Then, 4 ml of PBS was added to the 2 tubes respectively, and centrifuged to remove the supernatant. Here, the supernatant was not removed using pipette, but poured out to minimize the loss of cells. 100 ul of 0.1% saponin was added to the remaining cells, and stirred smoothly using pipette. Then, the mixture was placed in a darkroom at room temperature for 5min. Then, 10 ul of IgG1-PE was added to the control group and 10 ul of MMP-3-PE was added to the comparative group, and then the both groups were placed in a darkroom for 15 min. After 15 min, 4 ml of PBS was added to the each group, and centrifuged under the condition of 2000 g, 5 min and 4 to remove the supernatant. Then, 500 ul of fresh PBS was added to the each group, and fluorescence-activated cell sorting (FACS) was performed.

[1] = RA (R), patient with reduced activity after being treated with drugs
[2] = RA (S), patient with severe rheumatoid arthritis
[3] = RA (mi), patient with mild rheumatoid arthritis

## CCCCCCCCCCCCCC(=O)O[C@@H]1[C@@H](C)[C@@]2(O)[C@@H](C=C(CO)C[C@]3(O)C(=O)C(C)=C[C@@H]23)[C@@H]2C(C)(C)[C@]12OC(C)=O [PMA, Phorbol 12-myristate 13-acetate]
Normal1 (normal person)
  level of expression of MMP-3, After: 39.23
  level of expression of MMP-3, Total (After minus Before): 12.56
Normal2 (normal person)
  level of expression of MMP-3, After: 53.05
  level of expression of MMP-3, Total (After minus Before): 11.49
[1]
  level of expression of MMP-3, After: 48.35
  level of expression of MMP-3, Total (After minus Before): 14.86
[2]
  level of expression of MMP-3, After: 68.97
  level of expression of MMP-3, Total (After minus Before): 43.64
[3]
  level of expression of MMP-3, After: 63.65
  level of expression of MMP-3, Total (After minus Before): 27.52
RA (s)
  level of expression of MMP-3, After: 64.53
  level of expression of MMP-3, Total (After minus Before): 26.12
